# According to patent US10168342B2, “Lipid probes and uses thereof” (THE SCRIPPS RESEARCH INSTITUTE, priority 2015, dated 2019):
# Where two headings read alike, the source gives them in different places.
# How the values were obtained:
# [1] = target: AEA-DA lipid probe targets in Neuro2a cells (Mus musculus, UniProt P52019); conditions: for SILAC ratio, SQLE (Q14534): Neuro2a cells, AEA-DA probe
# [2] = target: T1, AEA-DA lipid probe targets in Neuro2a cells (Mus musculus, UniProt P52875)
# T1 sequence (P52875 34-323): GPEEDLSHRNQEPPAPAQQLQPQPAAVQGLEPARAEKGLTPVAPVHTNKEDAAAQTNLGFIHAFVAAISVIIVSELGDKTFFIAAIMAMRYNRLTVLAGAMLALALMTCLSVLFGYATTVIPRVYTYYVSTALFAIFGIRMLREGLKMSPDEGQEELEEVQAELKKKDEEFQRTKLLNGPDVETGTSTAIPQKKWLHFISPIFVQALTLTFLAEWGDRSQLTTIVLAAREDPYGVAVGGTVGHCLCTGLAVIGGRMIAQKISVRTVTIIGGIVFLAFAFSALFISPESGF
# [3] = target: AEA-DA lipid probe targets in Neuro2a cells (Mus musculus, UniProt P47740)
# Sequence of AEA-DA lipid probe targets in Neuro2a cells (Mus musculus, UniProt P47740) (P47740 whole entry): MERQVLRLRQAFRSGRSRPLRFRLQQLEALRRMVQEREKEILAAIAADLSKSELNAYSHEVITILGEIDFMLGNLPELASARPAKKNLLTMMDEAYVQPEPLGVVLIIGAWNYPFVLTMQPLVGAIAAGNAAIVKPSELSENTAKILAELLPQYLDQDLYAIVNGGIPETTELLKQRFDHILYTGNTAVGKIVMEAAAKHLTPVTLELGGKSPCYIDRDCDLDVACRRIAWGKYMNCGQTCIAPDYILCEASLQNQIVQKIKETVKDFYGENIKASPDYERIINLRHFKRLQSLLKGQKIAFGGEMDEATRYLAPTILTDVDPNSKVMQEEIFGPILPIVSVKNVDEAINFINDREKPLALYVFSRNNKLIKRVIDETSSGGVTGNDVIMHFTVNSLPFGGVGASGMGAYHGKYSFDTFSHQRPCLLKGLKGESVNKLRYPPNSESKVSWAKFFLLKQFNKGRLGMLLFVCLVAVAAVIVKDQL
# [4] = target: T2, AEA-DA lipid probe targets in Neuro2a cells (Mus musculus, UniProt Q9WU62)
# T2 sequence (Q9WU62 1-880): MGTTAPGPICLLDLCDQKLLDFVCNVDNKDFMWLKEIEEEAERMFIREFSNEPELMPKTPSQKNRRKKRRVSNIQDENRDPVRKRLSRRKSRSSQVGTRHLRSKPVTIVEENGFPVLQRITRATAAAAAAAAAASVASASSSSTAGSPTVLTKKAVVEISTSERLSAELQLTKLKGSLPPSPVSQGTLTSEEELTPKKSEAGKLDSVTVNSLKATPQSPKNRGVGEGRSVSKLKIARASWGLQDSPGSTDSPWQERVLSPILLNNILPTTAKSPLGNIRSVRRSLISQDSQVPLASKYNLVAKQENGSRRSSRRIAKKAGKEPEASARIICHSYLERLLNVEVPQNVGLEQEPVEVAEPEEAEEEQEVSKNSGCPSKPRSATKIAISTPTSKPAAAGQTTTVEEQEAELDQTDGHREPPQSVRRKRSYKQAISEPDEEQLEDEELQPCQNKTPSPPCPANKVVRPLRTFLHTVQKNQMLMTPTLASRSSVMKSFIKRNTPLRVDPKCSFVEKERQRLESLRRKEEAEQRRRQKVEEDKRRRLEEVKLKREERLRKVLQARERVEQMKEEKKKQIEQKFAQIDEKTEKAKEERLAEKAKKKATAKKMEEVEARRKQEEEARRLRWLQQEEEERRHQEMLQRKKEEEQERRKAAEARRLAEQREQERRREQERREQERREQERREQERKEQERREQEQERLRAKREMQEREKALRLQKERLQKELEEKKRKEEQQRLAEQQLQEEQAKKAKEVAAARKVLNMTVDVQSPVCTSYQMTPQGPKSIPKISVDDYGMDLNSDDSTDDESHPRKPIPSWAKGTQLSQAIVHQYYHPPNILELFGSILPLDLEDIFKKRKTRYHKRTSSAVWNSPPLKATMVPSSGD
# [5] = target: T3, AEA-DA lipid probe targets in Neuro2a cells (Mus musculus, UniProt Q60930); conditions: Neuro2a cells, AEA-DA probe
# T3 sequence (Q60930 1-295): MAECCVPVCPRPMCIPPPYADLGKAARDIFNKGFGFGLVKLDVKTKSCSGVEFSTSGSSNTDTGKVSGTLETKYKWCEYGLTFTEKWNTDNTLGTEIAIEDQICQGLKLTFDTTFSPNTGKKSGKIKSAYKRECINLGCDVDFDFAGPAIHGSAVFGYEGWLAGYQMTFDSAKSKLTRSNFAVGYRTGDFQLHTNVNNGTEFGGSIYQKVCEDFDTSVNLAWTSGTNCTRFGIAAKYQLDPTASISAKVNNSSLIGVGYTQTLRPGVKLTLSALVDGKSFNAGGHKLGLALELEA
# [6] = target: AEA-DA lipid probe targets in Neuro2a cells (Mus musculus, UniProt Q9Z2G6)
# Sequence of AEA-DA lipid probe targets in Neuro2a cells (Mus musculus, UniProt Q9Z2G6) (Q9Z2G6 22-790): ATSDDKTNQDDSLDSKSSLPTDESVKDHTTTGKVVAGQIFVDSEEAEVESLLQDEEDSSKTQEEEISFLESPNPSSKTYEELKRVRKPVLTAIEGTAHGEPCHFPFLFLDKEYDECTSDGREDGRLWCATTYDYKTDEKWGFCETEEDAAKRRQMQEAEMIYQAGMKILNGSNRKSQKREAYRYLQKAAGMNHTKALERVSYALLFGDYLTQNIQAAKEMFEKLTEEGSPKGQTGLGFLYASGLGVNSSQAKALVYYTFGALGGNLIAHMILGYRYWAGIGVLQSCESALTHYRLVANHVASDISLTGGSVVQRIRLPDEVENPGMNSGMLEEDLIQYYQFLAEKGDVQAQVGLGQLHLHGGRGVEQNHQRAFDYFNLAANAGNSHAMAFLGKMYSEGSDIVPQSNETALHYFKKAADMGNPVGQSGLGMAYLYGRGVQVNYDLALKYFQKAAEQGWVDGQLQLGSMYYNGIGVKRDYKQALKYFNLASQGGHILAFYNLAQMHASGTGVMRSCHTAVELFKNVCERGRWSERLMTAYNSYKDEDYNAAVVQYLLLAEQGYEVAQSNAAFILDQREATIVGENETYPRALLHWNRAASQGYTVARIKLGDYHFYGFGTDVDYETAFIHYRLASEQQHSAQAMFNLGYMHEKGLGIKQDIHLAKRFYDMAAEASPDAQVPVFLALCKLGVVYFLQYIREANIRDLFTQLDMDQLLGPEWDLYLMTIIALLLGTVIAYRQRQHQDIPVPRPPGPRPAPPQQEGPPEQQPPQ
# [7] = target: T4, AEA-DA lipid probe targets in Neuro2a cells (Mus musculus, UniProt Q8R1L4)
# T4 sequence (Q8R1L4 1-214): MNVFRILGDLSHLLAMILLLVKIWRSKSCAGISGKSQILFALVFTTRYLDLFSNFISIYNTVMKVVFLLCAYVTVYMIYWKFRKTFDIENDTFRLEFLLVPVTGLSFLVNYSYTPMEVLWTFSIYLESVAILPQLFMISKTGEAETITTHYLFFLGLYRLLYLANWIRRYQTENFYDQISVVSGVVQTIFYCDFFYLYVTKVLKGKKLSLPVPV
# [8] = target: T5, AEA-DA lipid probe targets in Neuro2a cells (Mus musculus, UniProt Q61425)
# T5 sequence (Q61425 13-314): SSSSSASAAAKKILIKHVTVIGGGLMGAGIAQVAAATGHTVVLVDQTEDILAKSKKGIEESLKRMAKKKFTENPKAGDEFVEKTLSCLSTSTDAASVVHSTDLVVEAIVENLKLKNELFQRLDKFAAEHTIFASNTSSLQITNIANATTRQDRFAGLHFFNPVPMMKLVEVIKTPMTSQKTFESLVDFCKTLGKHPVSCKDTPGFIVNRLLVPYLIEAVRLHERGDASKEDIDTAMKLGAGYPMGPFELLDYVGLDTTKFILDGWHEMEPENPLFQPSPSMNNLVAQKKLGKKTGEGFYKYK
# [9] = target: T6, AEA-DA lipid probe targets in Neuro2a cells (Mus musculus, UniProt Q9CPQ8)
# T6 sequence (Q9CPQ8 1-103): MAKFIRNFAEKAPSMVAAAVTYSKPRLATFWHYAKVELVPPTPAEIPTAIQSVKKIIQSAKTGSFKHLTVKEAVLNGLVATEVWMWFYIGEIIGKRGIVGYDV
# [10] = target: T7, AEA-DA lipid probe targets in Neuro2a cells (Mus musculus, UniProt Q9D938)
# T7 sequence (Q9D938 97-188): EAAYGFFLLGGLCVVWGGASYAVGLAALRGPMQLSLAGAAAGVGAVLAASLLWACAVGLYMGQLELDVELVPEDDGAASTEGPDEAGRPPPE
# Sequence of AEA-DA lipid probe targets in Neuro2a cells (Mus musculus, UniProt P52019) (P52019 whole entry): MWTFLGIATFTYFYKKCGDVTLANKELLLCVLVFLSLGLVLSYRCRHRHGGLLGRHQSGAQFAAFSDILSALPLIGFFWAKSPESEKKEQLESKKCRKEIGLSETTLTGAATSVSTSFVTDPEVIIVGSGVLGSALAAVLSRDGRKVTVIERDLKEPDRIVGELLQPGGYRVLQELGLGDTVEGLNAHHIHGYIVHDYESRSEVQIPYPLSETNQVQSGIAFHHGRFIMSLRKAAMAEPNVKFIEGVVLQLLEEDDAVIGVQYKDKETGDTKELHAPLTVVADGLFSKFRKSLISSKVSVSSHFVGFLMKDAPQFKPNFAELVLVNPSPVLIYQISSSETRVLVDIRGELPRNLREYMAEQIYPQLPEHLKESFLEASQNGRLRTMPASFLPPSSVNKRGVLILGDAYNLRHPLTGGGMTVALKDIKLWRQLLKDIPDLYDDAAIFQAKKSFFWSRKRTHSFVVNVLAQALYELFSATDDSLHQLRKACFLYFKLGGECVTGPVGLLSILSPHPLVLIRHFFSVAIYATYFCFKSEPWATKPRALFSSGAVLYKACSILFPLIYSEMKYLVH
structure (smiles),measurement,setting,value
"CCCCC/C=C\C/C=C\C/C=C\C/C=C\CCCC(=O)NCCO [AEA, anandamide, reference compound]","SILAC ratio, SQLE (Q14534)",[1]; competitor 200 μM,1.9
same,SILAC ratio Sqle,[1]; competitor 200 μM,1.9
same,"SILAC ratio, Tmem165",[2]; competitor 200 μM,1.5
same,"SILAC ratio, Aldh3a2",[3]; competitor 200 μM,1.7
same,SILAC ratio Incenp,[4]; competitor 200 μM,1.4
same,"SILAC ratio, VDAC2 (P45880)",[5]; competitor 200 μM,1.2
same,"SILAC ratio, Sel1l",[6]; competitor 200 μM,1.6
same,"SILAC ratio, Kdelr3",[7]; competitor 200 μM,1.2
same,SILAC ratio Hadh,[8]; competitor 200 μM,1.2
same,SILAC ratio Atp5l,[9]; competitor 200 μM,1.3
"O=C(/C=C/c1cccnc1)NCCCCC1CCN(C(=O)c2ccccc2)CC1 [FK-866, reference compound]","SILAC ratio, SQLE (Q14534)",[1]; competitor 25 μM,1.1
same,SILAC ratio Sqle,[1]; competitor 25 μM,1.1
same,"SILAC ratio, Tmem165",[2]; competitor 25 μM,1.1
same,"SILAC ratio, Aldh3a2",[3]; competitor 25 μM,1.6
same,"SILAC ratio, Tmem160",[10]; competitor 25 μM,1.2
same,SILAC ratio Incenp,[4]; competitor 25 μM,0.8
same,"SILAC ratio, VDAC2 (P45880)",[5]; competitor 25 μM,1.0
same,"SILAC ratio, Sel1l",[6]; competitor 25 μM,1.4
same,"SILAC ratio, Kdelr3",[7]; competitor 25 μM,1.1
same,SILAC ratio Hadh,[8]; competitor 25 μM,1.2
same,SILAC ratio Atp5l,[9]; competitor 25 μM,1.1
"CN1CCN(C(=O)c2c(-c3ccccc3)c3cc([N+](=O)[O-])ccc3n2C)CC1 [KML110, (1-Methyl-5-nitro-3-phenyl-1H-indol-2-yl)(4-methylpiperazin-1-yl)methanone]",SILAC ratio Sqle,[1]; competitor 25 μM,1.3
same,"SILAC ratio, Tmem165",[2]; competitor 25 μM,1.5
same,"SILAC ratio, Aldh3a2",[3]; competitor 25 μM,1.4
same,"SILAC ratio, Tmem160",[10]; competitor 25 μM,1.3
same,SILAC ratio Incenp,[4]; competitor 25 μM,1.2
same,"SILAC ratio, Sel1l",[6]; competitor 25 μM,1.5
same,"SILAC ratio, Kdelr3",[7]; competitor 25 μM,1.2
same,SILAC ratio Hadh,[8]; competitor 25 μM,1.2
same,SILAC ratio Atp5l,[9]; competitor 25 μM,1.2
"CN1CCN(C(=O)c2[nH]c3ccc([N+](=O)[O-])cc3c2-c2ccccc2)CC1 [MJN228, (4-Methylpiperazin-1-yl)(5-nitro-3-phenyl-1H-indol-2-yl)methanone]","SILAC ratio, SQLE (Q14534)",[1]; competitor 25 μM,1.5
same,SILAC ratio Sqle,[1]; competitor 10 μM,1.3
same,SILAC ratio Sqle,[1]; competitor 25 μM,1.5
same,SILAC ratio Sqle,[1]; competitor 100 μM,2.1
same,"SILAC ratio, Tmem165",[2]; competitor 10 μM,1.0
same,"SILAC ratio, Tmem165",[2]; competitor 25 μM,1.2
same,"SILAC ratio, Tmem165",[2]; competitor 100 μM,1.5
same,"SILAC ratio, Aldh3a2",[3]; competitor 10 μM,1.2
same,"SILAC ratio, Aldh3a2",[3]; competitor 25 μM,1.8
same,"SILAC ratio, Aldh3a2",[3]; competitor 50 μM,1.7
same,"SILAC ratio, Aldh3a2",[3]; competitor 100 μM,2.1
same,"SILAC ratio, Tmem160",[10]; competitor 10 μM,1.2
same,"SILAC ratio, Tmem160",[10]; competitor 25 μM,1.5
same,"SILAC ratio, Tmem160",[10]; competitor 100 μM,3.5
same,SILAC ratio Incenp,[4]; competitor 10 μM,1.4
same,SILAC ratio Incenp,[4]; competitor 25 μM,1.2
same,SILAC ratio Incenp,[4]; competitor 50 μM,1.8
same,SILAC ratio Incenp,[4]; competitor 100 μM,1.7
same,"SILAC ratio, VDAC2 (P45880)",[5]; competitor 25 μM,1.0
same,"SILAC ratio, Sel1l",[6]; competitor 10 μM,1.2
same,"SILAC ratio, Sel1l",[6]; competitor 25 μM,1.5
same,"SILAC ratio, Sel1l",[6]; competitor 50 μM,1.5
same,"SILAC ratio, Sel1l",[6]; competitor 100 μM,1.9
same,"SILAC ratio, Kdelr3",[7]; competitor 10 μM,1.2
same,"SILAC ratio, Kdelr3",[7]; competitor 25 μM,1.3
same,"SILAC ratio, Kdelr3",[7]; competitor 50 μM,1.3
same,"SILAC ratio, Kdelr3",[7]; competitor 100 μM,1.6
same,SILAC ratio Hadh,[8]; competitor 10 μM,1.3
same,SILAC ratio Hadh,[8]; competitor 25 μM,1.3
same,SILAC ratio Hadh,[8]; competitor 50 μM,1.1
same,SILAC ratio Hadh,[8]; competitor 100 μM,1.3
same,SILAC ratio Atp5l,[9]; competitor 10 μM,1.5
same,SILAC ratio Atp5l,[9]; competitor 25 μM,1.5
same,SILAC ratio Atp5l,[9]; competitor 50 μM,1.4
same,SILAC ratio Atp5l,[9]; competitor 100 μM,1.3
"C=CCN(C)CCCCCCOc1ccc(C(=O)c2ccc(Br)cc2)c(F)c1 [Ro 48-8071, reference compound]","SILAC ratio, SQLE (Q14534)",[1]; competitor 25 μM,1.0
same,SILAC ratio Sqle,[1]; competitor 25 μM,1.0
same,"SILAC ratio, Tmem165",[2]; competitor 25 μM,1.1
same,"SILAC ratio, Aldh3a2",[3]; competitor 25 μM,1.3
same,"SILAC ratio, Tmem160",[10]; competitor 25 μM,1.2
same,"SILAC ratio, VDAC2 (P45880)",[5]; competitor 25 μM,1.0
same,"SILAC ratio, Sel1l",[6]; competitor 25 μM,1.2
same,"SILAC ratio, Kdelr3",[7]; competitor 25 μM,0.9
same,SILAC ratio Hadh,[8]; competitor 25 μM,0.8
same,SILAC ratio Atp5l,[9]; competitor 25 μM,1.0
